The values that follow come from ChEMBL document CHEMBL1201862, “PubChem BioAssay data set” (2004).

Common to all, as to test: DTP human tumour cell line panel, 48 h
The subject of test [1] is SK-MEL-2.
Test [2] concerns ACHN.
In test [3] the test system is NCI/ADR-RES.
Test [4] concerns HCT-15.
For test [5], the system named is COLO 205.
Test [6] relates to HL-60.
Test [7] deals with SNB-19.
The subject of test [8] is SW-620.
In test [9] the test system is MCF7.
Test [10] relates to HOP-62.
In test [11] the test system is SK-MEL-28.
The test system of test [12] is HT-29.
In test [13] the test system is UO-31.
Test [14] relates to A549.
The test system of test [15] is DU-145.
Test [16] has as its system Malme-3M.
Test [17] has as its system A498.
Test [18] deals with HCC 2998.
Test [19] relates to IGROV-1.
Test [20] has as its system SK-OV-3.

Counter-ions that a name gives are not always drawn.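 Dose response: 5 concentrations. Exposure: 48 h. Format: 96-well plates. Endpoint: linear interpolation; highest concentration if not reached. GI50 marks 50% less growth.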 Active and inactive are the calls of the source. Cut-off read from the data, not from the text of the source: active = GI50 up to about 1.1 µM and inactive = higher. Bounds are passed on as bounds.

By GI50 is commonly meant the concentration that inhibits growth by half. With `Cc1ccc(N(C)S(=O)(=O)c2ccccc2[N+](=O)[O-])cc1`, the GI50 in test [1] is 30.8 µM (inactive); in test [2], 58.9 µM (inactive); in test [3] it was 37.5 µM (inactive); in [4], 46.7 µM; in test [5], 57.3 µM (inactive); in [6], > 100 µM (inactive). Besides, the GI50 was 64.9 µM (inactive) in test [7]; 58.3 µM (inactive) in test [8]; 49 µM (inactive) in test [9]; 49.1 µM (inactive) in [10]; 44.9 µM (inactive) in test [11]; 34 µM (inactive) in test [12]. The GI50 is 40.5 µM (inactive) in test [13], 39.6 µM (inactive) in test [14], 98.4 µM (inactive) in test [15] and 33.2 µM (inactive) in test [16].
Consider `COc1ccc(/C=N/c2ccc(-c3nc4ccccc4s3)cc2)cc1OC`, for which the GI50 in [17] is 18.8 µM (inactive); in test [1], 22 µM (inactive); in test [2], 22.5 µM (inactive); in [3], 27.5 µM (inactive); in test [18], 20.2 µM (inactive); in test [4] it was 31.8 µM. Besides, the GI50 in [5] is 19.3 µM (inactive); in test [6], 1.3 µM (inactive); in [7] it was 54.1 µM (inactive); in test [8], 34.8 µM (inactive); in [19], 25.1 µM (inactive); in test [10] it was 10.9 µM (inactive). Besides, the GI50 is 38 µM (inactive) in [11]; 30.7 µM (inactive) in test [12]; 27.5 µM (inactive) in [13]; 31 µM (inactive) in test [20]; 36.5 µM (inactive) in test [14]; 38.3 µM (inactive) in test [15]. Moreover, the GI50 in [16] is 30 µM (inactive).
For the molecule `O=C1C(Cl)=C(Cl)C(=O)N1c1ccc(F)cc1` [FLUOROIMIDE], the GI50 was > 100 µM (inactive) in test [17]; 46.1 µM (inactive) in [1]; 18.2 µM (inactive) in [2]; 19.6 µM (inactive) in test [18]; 16.2 µM in [4]; 14.4 µM (inactive) in test [5]. Also, the GI50 was 1.89 µM (inactive) in test [6]; > 58.3 µM (inactive) in [7]; 16.9 µM (inactive) in test [8]; 20.7 µM (inactive) in [9]; 18.6 µM (inactive) in test [19]; > 67.9 µM (inactive) in test [10]. Besides, the GI50 in [11] was 19.7 µM (inactive); in test [12], 22.5 µM (inactive); in [13], 22 µM (inactive); in test [20] it was 28.6 µM (inactive); in [14], 97.9 µM (inactive); in test [15], 37.9 µM (inactive). In [16], the GI50 was 17.2 µM (inactive).
For `COc1ccc2c(O)c(Oc3ccc(Cl)cc3)c(=O)oc2c1`, the GI50 is 38.5 µM (inactive) in test [17]; 93.3 µM (inactive) in test [2]; 75.7 µM (inactive) in test [18]; 41.4 µM in test [4]; > 100 µM (inactive) in [6]; 31.4 µM (inactive) in test [7]. In addition, the GI50 in [8] is > 100 µM (inactive); in test [9] it was > 100 µM (inactive); in test [19], 60 µM (inactive); in test [10], > 100 µM (inactive); in [11] it was > 100 µM (inactive); in test [12], > 100 µM (inactive). Moreover, the GI50 in test [13] is 27.5 µM (inactive); in test [14], > 100 µM (inactive); in [15] it was 90.4 µM (inactive); in [16], 60.7 µM (inactive).
As for `COc1cc(C2SCC(=O)N2c2ccc(Cl)cc2)cc(OC)c1OC` (configuration not stated), the GI50 in [17] is > 100 µM (inactive); in test [1] it was 8.51 µM (inactive); in test [3], 20.4 µM (inactive); in [18], > 30.2 µM (inactive); in test [4], 13.9 µM; in test [5], 1.94 µM (inactive). Besides, the GI50 is 2.46 µM (inactive) in test [6]; > 100 µM (inactive) in test [7]; 19 µM (inactive) in test [8]; 5.22 µM (inactive) in test [9]; 20.7 µM (inactive) in test [19]; 21.1 µM (inactive) in test [10]. Further, the GI50 in test [11] was > 72.9 µM (inactive); in test [13], 1.19 µM (inactive); in [20], > 94.6 µM (inactive); in test [14] it was > 100 µM (inactive); in test [16], > 100 µM (inactive).
Regarding `CC(=O)O/C=C1/C[C@H]2[C@@H]3CCC4CC(C(C)=O)CC[C@]4(C)[C@H]3CC[C@]2(C)C1=O` (some centres not stated), the GI50 is > 100 µM (inactive) in test [17]; > 100 µM (inactive) in test [1]; > 100 µM (inactive) in test [2]; > 100 µM (inactive) in test [18]; 14.8 µM in [4]; > 10 µM (inactive) in test [5]. Further, the GI50 in test [6] was 11.9 µM (inactive); in test [7], 53.2 µM (inactive); in [8], > 100 µM (inactive); in test [9], 38 µM (inactive); in [19] it was 88.9 µM (inactive); in [10] it was > 100 µM (inactive). For the same molecule, the GI50 in test [11] is > 100 µM (inactive); in [12] it was 51.4 µM (inactive); in test [13], > 100 µM (inactive); in test [20], > 100 µM (inactive); in test [15], > 100 µM (inactive); in test [16] it was > 100 µM (inactive).
Turning to `O=C(NC1CCN(Cc2ccccc2)CC1)c1ccc(I)cc1`, the GI50 in test [17] was > 100 µM (inactive); in test [1], 75.9 µM (inactive); in test [2], 96.2 µM (inactive); in test [3], > 100 µM (inactive); in test [4] it was 59.6 µM; in test [5], 21.8 µM (inactive). In addition, the GI50 in [6] is > 100 µM (inactive); in test [7] it was > 100 µM (inactive); in [8], > 100 µM (inactive); in test [19], 94 µM (inactive); in test [10], 55.6 µM (inactive); in test [11], 63.2 µM (inactive). Also, the GI50 in test [12] was 19.8 µM (inactive); in [13] it was 22.9 µM (inactive); in [20], 44.1 µM (inactive); in test [14] it was 76.4 µM (inactive); in [15], 91.6 µM (inactive); in test [16] it was 1.98 µM (inactive).
Take `CCCCC1Cc2cc(OC)ccc2-c2nc3cc(OC)ccc3n21.CCCCC1Cc2cc(OC)ccc2-c2nc3ccc(OC)cc3n21` (configuration not stated): the GI50 in test [2] is 15.2 µM (inactive); in test [3], 13.2 µM (inactive); in test [4] it was 3.37 µM; in test [5], 4.9 µM (inactive); in test [6], 13.8 µM (inactive); in [7], 9.73 µM (inactive). Also, the GI50 in test [8] was 14.5 µM (inactive); in test [9] it was 17.2 µM (inactive); in test [19] it was 11.1 µM (inactive); in test [10], 15.7 µM (inactive); in [12] it was 10.7 µM (inactive); in [13] it was 12.3 µM (inactive). The GI50 in test [20] was 13.5 µM (inactive); in test [14], 14 µM (inactive); in test [15], 16.4 µM (inactive); in [16], 16 µM (inactive).
Consider `O=C(/N=N/c1cccc(Cl)c1)NNc1cccc(Cl)c1`, for which the GI50 in test [17] was 17.7 µM (inactive); in test [1], 11.5 µM (inactive); in test [2] it was 9.25 µM (inactive); in test [18] it was 14.7 µM (inactive); in test [4], 17.6 µM; in test [6], 16.7 µM (inactive). Besides, the GI50 was 20.8 µM (inactive) in test [7]; 16.2 µM (inactive) in [8]; 17.5 µM (inactive) in test [19]; 5.3 µM (inactive) in test [10]; 20.1 µM (inactive) in test [11]; 22.9 µM (inactive) in test [12]. The GI50 is 8.49 µM (inactive) in [13], 24.5 µM (inactive) in test [14], 17.5 µM (inactive) in [15] and 16.7 µM (inactive) in test [16].
Take `O=C1NC2OCC(O)C(O)C2O1` (configuration not stated): the GI50 is > 100 µM (inactive) in [17]; > 100 µM (inactive) in test [1]; > 100 µM (inactive) in test [2]; > 100 µM (inactive) in test [18]; more than 100 µM in test [4]; > 100 µM (inactive) in test [5]. The GI50 in test [6], in [7], in test [8], in test [19], in test [10] and in test [11] was > 100 µM (inactive) each time. In addition, the GI50 in test [12], in test [13], in [20], in test [14] and in test [16] was > 100 µM (inactive) in each case.
`CC1=NCCc2c1[nH]c1cc(O)ccc21` [HARMALOL HYDROCHLORIDE]: the GI50 is > 100 µM (inactive) in test [17]; > 100 µM (inactive) in test [1]; > 100 µM (inactive) in [2]; > 100 µM (inactive) in test [18]; more than 100 µM in test [4]; > 100 µM (inactive) in test [5]. In addition, the GI50 in [6], in test [7], in test [8], in test [19], in [10] and in test [11] was > 100 µM (inactive) in each case. The GI50 in test [12], in [13], in [20], in test [14] and in test [16] was > 100 µM (inactive) in each case.
`NC1=Nc2ncccc2C(=O)NN1`: the GI50 in [17] was > 10 µM (inactive); in test [1], > 10 µM (inactive); in [2], > 10 µM (inactive); in test [18], 8.89 µM (inactive); in test [4], more than 10 µM; in test [6], > 10 µM (inactive). The GI50 in test [7], in [8], in test [9], in test [19], in [10] and in test [11] was > 10 µM (inactive) in each case. In addition, the GI50 in test [12], in test [13], in test [20], in [14], in test [15] and in test [16] was > 10 µM (inactive) throughout.
